The source made the active and inactive calls. The calls are words filed in the database; no cut-off is given here.

The record followed here is ChEMBL document CHEMBL4422618, “Translational impact of novel widely pharmacological characterized mofezolac-derived COX-1 inhibitors combined with bortezomib on human multiple myeloma cell lines viability” (Eur J Med Chem, 2019).

The target of series [1] is T1, Prostaglandin G/H synthase 1 (Ovis aries, UniProt P05979).
T1 sequence (P05979 whole entry): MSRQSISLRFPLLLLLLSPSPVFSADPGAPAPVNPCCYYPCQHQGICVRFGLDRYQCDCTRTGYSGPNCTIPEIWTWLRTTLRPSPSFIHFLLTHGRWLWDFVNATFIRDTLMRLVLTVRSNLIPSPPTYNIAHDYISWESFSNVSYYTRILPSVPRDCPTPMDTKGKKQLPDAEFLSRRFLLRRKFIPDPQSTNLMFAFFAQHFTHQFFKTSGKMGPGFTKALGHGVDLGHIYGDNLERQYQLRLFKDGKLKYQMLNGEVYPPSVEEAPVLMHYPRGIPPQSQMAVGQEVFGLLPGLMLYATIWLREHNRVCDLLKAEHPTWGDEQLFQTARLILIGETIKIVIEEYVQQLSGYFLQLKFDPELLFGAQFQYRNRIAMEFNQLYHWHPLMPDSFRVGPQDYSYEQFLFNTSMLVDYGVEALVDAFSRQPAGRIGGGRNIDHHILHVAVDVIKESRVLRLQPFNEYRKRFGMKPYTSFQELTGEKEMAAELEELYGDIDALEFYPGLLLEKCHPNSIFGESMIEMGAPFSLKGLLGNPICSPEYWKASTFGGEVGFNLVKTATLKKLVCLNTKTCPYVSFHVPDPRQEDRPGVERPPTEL
As to the kind of experiment: Inhibition of ovine COX1 using arachidonic acid as substrate by colorimetric assay.

The target of series [2] is T2, Prostaglandin G/H synthase 1 (Ovis aries) (UniProt P05979).
T2 sequence (whole entry): T1 sequence (P05979 whole entry)
Put plainly: Inhibition of ovine COX1 at 50 uM using arachidonic acid as substrate by colorimetric assay relative to control.

The nature of series [3]: Genotoxicity in Escherichia coli PQ37 at 500 uM after overnight incubation by SOS chromotest. The class given is toxicity.
Series [4] has as its system NCI-H929. Put plainly: Potentiation of bortezomib-induced cytotoxicity against human NCI-H929 cells assessed as reduction in cell viability at 42 nM after 48 hrs in presence of bortezomib by CCK8 assay. It counts as functional, cell-based.
Series [5] relates to RPMI-8226. As to the kind of experiment: Cell cycle arrest in human RPMI8226 cells assessed as accumulation at G0/G1 phase at 42 nM after 48 hrs by propidium iodide/RNase staining based flow cytometric method. It counts as functional.
For series [6], the system named is NCI-H929. As to the kind of experiment: Induction of apoptosis in human NCI-H929 cells assessed as early apoptotic cells at 42 nM after 48 hrs by Annexin-V/propidium iodide staining based flow cytometric method (reference value: 17.1%). The class given is functional. (In flow cytometry, cells or beads pass a laser one at a time.)
Series [7] relates to NCI-H929. Put plainly: Induction of apoptosis in human NCI-H929 cells assessed as late apoptotic cells at 42 nM after 48 hrs in presence of bortezomib by Annexin-V/propidium iodide staining based flow cytometric method (reference value: 0.23%). It counts as functional.
For series [8], the system named is RPMI-8226. Put plainly: Induction of apoptosis in human RPMI8226 cells assessed as early apoptotic cells at 42 nM after 48 hrs in presence of bortezomib by Annexin-V/propidium iodide staining based flow cytometric method (reference value: 1.05%). The class given is functional.
Series [9] deals with RPMI-8226. As to the kind of experiment: Cell cycle arrest in human RPMI8226 cells assessed as accumulation at G0/G1 phase at 42 nM in presence of bortezomib after 48 hrs by propidium iodide/RNase staining based flow cytometric method relative to bortezomib. The class given is functional.
Series [10] has as its system RPMI-8226. Put plainly: Cell cycle arrest in human RPMI8226 cells assessed as accumulation at S phase at 42 nM in presence of bortezomib after 48 hrs by propidium iodide/RNase staining based flow cytometric method relative to bortezomib. The class given is functional.
Series [11] has as its system RPMI-8226. Put plainly: Cell cycle arrest in human RPMI8226 cells assessed as reduction in accumulation at G2/M phase at 42 nM in presence of bortezomib after 48 hrs by propidium iodide/RNase staining based flow cytometric method relative to bortezomib. The class given is functional.

In series [1], `C=Cc1onc(-c2ccc(OC)cc2)c1-c1ccc(OC)cc1` returned a concentration for half-maximal inhibition (IC50) of 42 nM. Also, the inhibition in series [2] came to 100%. Moreover, the Activity result is reported as “Non-Toxic” in series [3], 16.9% with NCI-H929 [6], 0.22% in the series with NCI-H929 [7] and 9.68% in the series on RPMI-8226 [8]. The result in the series with NCI-H929 [4] and in the series with RPMI-8226 [5] was inactive. Besides, the result in the series with RPMI-8226 [9], in the series on RPMI-8226 [10] and in the series with RPMI-8226 [11] was Active.

Usually IC50 stands for the concentration that inhibits the measured activity by half. Higher therefore signals weaker potency in that assay. As a reminder, the inhibition is how much of the control response was suppressed. High values mean strong suppression, low ones little suppression.
